The source of these data is BindingDB's records for patent US20250051323 (Richter Gedeon, 2025).

pKi: −log10 of the molar value.

In general, pKi refers to the Ki on a negative log10 scale, so that one unit is a factor of ten. Higher therefore signals a small Ki.

This assay has as its target T1, GABA-A receptor; alpha-5/beta-3/gamma-2 (Homo sapiens, UniProt P18507+P28472+P31644).
T1 sequence (P31644 whole entry): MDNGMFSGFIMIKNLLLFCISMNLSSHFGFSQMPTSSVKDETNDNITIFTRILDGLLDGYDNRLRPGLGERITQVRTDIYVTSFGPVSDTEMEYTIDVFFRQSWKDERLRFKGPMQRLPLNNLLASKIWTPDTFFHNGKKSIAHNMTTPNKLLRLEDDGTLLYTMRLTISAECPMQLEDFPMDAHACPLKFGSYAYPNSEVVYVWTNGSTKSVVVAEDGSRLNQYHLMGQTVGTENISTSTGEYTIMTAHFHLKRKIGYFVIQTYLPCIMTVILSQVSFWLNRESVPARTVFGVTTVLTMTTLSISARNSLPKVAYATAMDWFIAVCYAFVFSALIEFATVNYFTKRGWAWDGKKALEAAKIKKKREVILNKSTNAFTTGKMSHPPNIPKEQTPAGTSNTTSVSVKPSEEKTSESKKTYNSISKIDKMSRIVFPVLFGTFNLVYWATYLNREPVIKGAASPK
T1 sequence (P18507 whole entry): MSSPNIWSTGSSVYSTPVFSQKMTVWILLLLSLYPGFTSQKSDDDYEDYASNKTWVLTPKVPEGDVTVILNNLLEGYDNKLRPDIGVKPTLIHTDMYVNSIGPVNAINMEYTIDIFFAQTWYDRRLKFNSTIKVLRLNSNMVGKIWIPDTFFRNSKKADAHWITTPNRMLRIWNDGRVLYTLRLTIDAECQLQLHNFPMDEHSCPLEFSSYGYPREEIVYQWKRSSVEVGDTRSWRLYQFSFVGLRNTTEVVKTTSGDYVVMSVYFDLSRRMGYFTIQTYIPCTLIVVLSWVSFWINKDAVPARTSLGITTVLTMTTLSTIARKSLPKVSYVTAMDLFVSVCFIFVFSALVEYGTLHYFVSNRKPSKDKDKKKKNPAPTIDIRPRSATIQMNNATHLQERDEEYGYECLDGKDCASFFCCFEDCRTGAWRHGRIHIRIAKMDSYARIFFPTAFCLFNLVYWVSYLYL
T1 sequence (P28472 whole entry): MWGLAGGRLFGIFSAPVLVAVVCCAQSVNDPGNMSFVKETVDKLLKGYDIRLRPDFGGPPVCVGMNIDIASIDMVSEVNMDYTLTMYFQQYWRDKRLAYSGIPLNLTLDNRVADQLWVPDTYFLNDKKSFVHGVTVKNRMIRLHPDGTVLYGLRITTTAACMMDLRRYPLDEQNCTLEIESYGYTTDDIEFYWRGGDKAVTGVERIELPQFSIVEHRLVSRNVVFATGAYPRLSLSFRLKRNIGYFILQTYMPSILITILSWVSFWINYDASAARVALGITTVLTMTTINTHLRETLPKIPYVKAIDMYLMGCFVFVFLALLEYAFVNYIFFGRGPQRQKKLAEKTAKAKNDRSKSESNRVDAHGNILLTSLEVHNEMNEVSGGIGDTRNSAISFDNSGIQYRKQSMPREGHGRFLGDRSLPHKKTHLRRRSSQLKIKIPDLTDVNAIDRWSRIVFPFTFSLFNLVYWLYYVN
The assay can be described thus: Binding Assay. The method, then:
Receptor binding assays were performed in 96-well format in deep-well plates. For each 96-well plate one ampule of membrane homogenate was thawed and diluted in binding buffer (50 mM Tris pH=7.4, 100 mM KCl) and 200 μL was dispensed into each well. Radioligand [3H]Ro151788 (Perkin Elmer: NET757250UC) was prepared in binding buffer and added to each well in 50 μL volume to give final concentration of 0.5 nM. Test compounds in suitable concentration(s) were added in additional 50 μL. The final assay volume was 300 μL. Incubation was carried out for 60 minutes at 4° C. For non-specific binding 10 μM unlabeled diazepam was used. After incubation samples were filtered over UniFilter GF/B™ using Filtermate Harvester (Perkin Elmer) and washed with 5×1 mL binding buffer. The plate was dried at 40° C. for an hour and 40 μL Microscint (Perkin Elmer) scintillation cocktail was added to each well. The plate was read in Microbeta (Perkin Elmer).
With `Cc1ccc(-c2noc(C)c2COc2cc3c(cn2)CN(C2CCC2)CC3)cn1` [US20250051323, Example 4], the pKi was 8.35.

Take `Cc1onc(-c2ccc(C(F)(F)F)nc2)c1COc1cc2c(nn1)CN(C1CCOC1)CC2` (stereo not drawn) [US20250051323, Example 18]: the pKi was 7.90.

As to `Cc1nnn(-c2ccc(C(F)(F)F)nc2)c1COc1cc2c(cn1)CN(CC1CCS(=O)(=O)C1)CC2` (stereo not drawn) [US20250051323, Example 36], the pKi is 7.27.

`Cc1nnn(-c2ccc(C(F)(F)F)nc2)c1COc1cc2c(cn1)CN(c1cccnc1)CC2` [US20250051323, Example 37] gave a pKi of 7.42.

`COc1ccc(-n2nnc(C)c2COc2cc3c(cn2)CN(C2CCOCC2)CC3)cn1` [US20250051323, Example 40] showed a pKi of 7.55. This pKi and that of the molecule before are within 0.2 log units of each other.

For `Cc1ccc(-n2nnc(C)c2COc2cc3c(cn2)CN(CC(C)C)CC3)cn1` [US20250051323, Example 41], the pKi was 7.21. Compared with the last molecule, the pKi is 0.34 log units lower.

`Cc1ccc(-n2nnc(C)c2COc2cc3c(cn2)CN(C2(C(C)C)COC2)CC3)cn1` [US20250051323, Example 42]: the pKi was 7.55.

`CCC1(N2CCc3cc(OCc4c(C)nnn4-c4ccc(C)nc4)ncc3C2)COC1` [US20250051323, Example 43] showed a pKi of 7.72.
